Results: PMC9907012, “Synthesis and characterisation of new antimalarial fluorinated triazolopyrazine compounds” (Beilstein Journal of Organic Chemistry, 2023)
Like-named read-outs stand apart in the source and are kept apart here.

Tests used:
[1] = tested on: P. falciparum 3D7 (chloroquine-sensitive strain); experiment: In vitro anti-plasmodial image-based assay, P. falciparum 3D7; assay type: cell-based, Plasmodium falciparum; details: for IC50 / inhibition at 80 µM: Plasmodium falciparum, 3D7; for IC50: 72 h incubation, read-out: Pf 3D7 IC50 ± SD; for SI for 3D7: SI = HEK293 IC50/parasite IC50; for inhibition at 80 µM: top dose of 80 µM, read-out: Pf 3D7 inhibition at the top dose (no IC50 given)
Procedure: (§1) S4: In vitro anti-plasmodial image-based assay
(§2) Plasmodium falciparum 3D7 and Dd2 parasites were cultured in RPMI1640 (Life Technologies, Camarillo, CA, USA) supplemented with 2.5 mg/mL Albumax II, 5% AB human serum, 25 mM HEPES, and 0.37mM hypoxanthine. Ring stage parasites were treated with compounds following two rounds of sorbitol synchronization, as previously described.
(§3) Following incubation of assay plates for 72 h at 37 °C, and 5% CO2 and 5% O2, parasites were stained with 2-(4-amidinophenyl)-1H-indole-6-carboxamidine (DAPI) and imaged using an Opera PhenixTM High Content Screening System (PerkinElmer, Waltham, MA, USA). Images were analysed using Harmony software (PerkinElmer, Waltham, MA, USA).
(§4) S5: In vitro cytotoxicity assay
(§5) Human embryonic kidney (HEK293) cells were maintained in DMEM (Life Technologies, Camarillo, CA, USA) containing 10% FBS (Hyclone™ ThermoFisher, Melbourne, Australia).
(§6) Cytotoxicity testing was undertaken, as previously described. In brief, 5 μL of test compound was added to the well of black/clear tissue culture-treated, 384-well plates containing 3000 adherent HEK 293 cells/well in 45 μL and incubated 72 h at 37 °C in 5% CO2.
(§7) After incubation, the supernatant was removed and replaced with 40 μL of 10% Alamar Blue per well. Plates were incubated for 5−6 h and measured for fluorescence at 530 -nm excitation and 595-nm emission. The % inhibition was calculated using 0.4% DMSO (no inhibition) and […]
(§8) IC 50 values were obtained by plotting % inhibition against log dose using GraphPad Prism v.6 (San Diego, CA, USA) nonlinear regression with a […]

[2] = tested on: P. falciparum Dd2 (chloroquine, pyrimethamine and mefloquine drug-resistant strain); experiment: In vitro anti-plasmodial image-based assay, P. falciparum Dd2; assay type: cell-based, Plasmodium falciparum; details: for IC50 / inhibition at 80 µM: Plasmodium falciparum, DD2; for IC50: 72 h incubation, read-out: Pf Dd2 IC50 ± SD; for SI for Dd2: SI = HEK293 IC50/parasite IC50; for inhibition at 80 µM: top dose of 80 µM, read-out: Pf Dd2 inhibition at the top dose (no IC50 given)
Procedure: as §1, §2, §3, §4, §5, §6, §7, §8

[3] = tested on: Plasmodium falciparum (Pf); details: previous study; read-out: IC50 (antimalarial activity); cited from earlier work
[4] = values marked d are estimated IC50 as a plateau of inhibition was not reached

SMILES	IC50 [1, 4] [µM]	SI for 3D7 [1]	IC50 [2, 4] [µM]	SI for Dd2 [2]	melting point [°C]	IC50 ([1]; controls) [µM]	IC50 ([2]; controls) [µM]	inhibition at 80 µM [2] [%]	inhibition at 80 µM [1] [%]	IC50 [3] [µM]
N#Cc1ccc(-c2nnc3c(C(F)F)ncc(OCCc4ccccc4)n23)cc1 [Compound 18, 4-(8-(Difluoromethyl)-5-phenethoxy-[1,2,4]triazolo[4,3-a]pyrazin-3-yl)benzonitrile]	31 ± 2.37	>3	58.6 ± 1.68	>1	109 to 111					
N#Cc1ccc(-c2nnc3cncc(OCCc4ccccc4)n23)cc1 [Compound 6, 4-(5-phenethoxy-[1,2,4]triazolo[4,3-a]pyrazin-3-yl)benzonitrile]	1.15 ± 0.05	>70	1.17 ± 0.09	>68	136 to 138					
N#Cc1ccc(-c2nnc3cncc(Cl)n23)cc1 [Compound 3]	35.5 ± 3.33	>2	26.2 ± 1.01	>3						
FC(F)Oc1ccc(-c2nnc3c(C(F)(F)F)ncc(OCCc4ccccc4)n23)cc1 [Compound 10, 3-(4-(Difluoromethoxy)phenyl)-5-phenethoxy-8-(trifluoromethyl)-[1,2,4]triazolo[4,3-a]pyrazine]	11.3 ± 1.45	>7	17.1 ± 0.71	>4						
COc1ccc(C[C@H](N)C(=O)N[C@H]2[C@@H](O)[C@H](n3cnc4c(N(C)C)ncnc43)O[C@@H]2CO)cc1 [Puromycin, reference compound]		127		98		0.079 ± 0.0057	0.102 ± 0.0095			
FC(F)c1ncc(OCCc2ccccc2)n2c(-c3ccc(Cl)cc3)nnc12 [Compound 15, 3-(4-Chlorophenyl)-8-(difluoromethyl)-5-phenethoxy-[1,2,4]triazolo[4,3-a]pyrazine]	18.8 ± 0.21	>4	14.3 ± 2.26	>6						
FC(F)(F)c1ncc(OCCc2ccccc2)n2c(-c3ccc(Cl)cc3)nnc12 [Compound 13, 3-(4-Chlorophenyl)-5-phenethoxy-8-(trifluoromethyl)-[1,2,4]triazolo[4,3-a]pyrazine]	9.43 ± 0.44	>9	10.2 ± 0.75	>8						
CCc1nc(N)nc(N)c1-c1ccc(Cl)cc1 [Pyrimethamine, reference compound]		>657				0.0152 ± 0.0012		< 33		
Clc1ccc(-c2nnc3cncc(OCCc4ccccc4)n23)cc1 [Compound 5, 3-(4-chlorophenyl)-5-phenethoxy-[1,2,4]triazolo[4,3-a]pyrazine]	0.2 ± 0.02	>396	0.22 ± 0.01	>364	131 to 132					
CCOc1cncc2nnc(-c3ccc(Cl)cc3)n12 [Compound 8, 3-(4-chlorophenyl)-5-ethoxy-[1,2,4]triazolo[4,3-a]pyrazine]	2.72 ± 0.03	>29	2.91 ± 0.18	>27						
FC(F)Oc1ccc(-c2nnc3cncc(OCCc4ccccc4)n23)cc1 [Compound 4]	0.24 ± 0.01	>329	0.26 ± 0.01	>312						
CCOc1cncc2nnc(-c3ccc(OC(F)F)cc3)n12 [Compound 7, 3-(4-(difluoromethoxy)phenyl)-5-ethoxy-[1,2,4]triazolo[4,3-a]pyrazine]								< 81	< 81	
FC(F)Oc1ccc(-c2nnc3c(C(F)F)ncc(OCCc4ccccc4)n23)cc1 [Compound 12, 3-(4-(Difluoromethoxy)phenyl)-8-(difluoromethyl)-5-phenethoxy-[1,2,4]triazolo[4,3-a]pyrazine]	16.4 ± 1.13	>5	19.6 ± 0.42	>4						
N#Cc1ccc(-c2nnc3c(C(F)(F)F)ncc(OCCc4ccccc4)n23)cc1 [Compound 16, 4-(5-Phenethoxy-8-(trifluoromethyl)-[1,2,4]triazolo[4,3-a]pyrazin-3-yl)benzonitrile]	22.5 ± 1.03	>4	45.1 ± 6.58	>2						
Clc1ccc(-c2nnc3cncc(Cl)n23)cc1 [Compound 2]	18.9 ± 0.63	>4	17.1 ± 0.43	>4						12.6
FC(F)Oc1ccc(-c2nnc3cncc(Cl)n23)cc1 [Compound 1]	45.2 ± 5.42	>2	34.5 ± 4.46	>2						
CC(F)(F)c1ncc(OCCc2ccccc2)n2c(-c3ccc(C#N)cc3)nnc12 [Compound 17, 4-(8-(1,1-Difluoroethyl)-5-phenethoxy-[1,2,4]triazolo[4,3-a]pyrazin-3-yl)benzonitrile]								< 33	< 33	
